Source: PubChem BioAssay (NCI)
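Values below derive from 48-hour exposures of cells grown in 96-well plates, with endpoints linearly interpolated between the two concentrations bracketing the appropriate inhibition level. GI50 marks 50% less growth. TGI marks complete inhibition of growth.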

Tests used:
Assay in all cases: NCI tumour cell line growth inhibition, 48 h
[1] = test system: OVCAR-3 ovarian
[2] = test system: SNB-75 CNS
[3] = test system: HOP-92 NSCLC
[4] = test system: M14 melanoma
[5] = test system: SW-620 colon
[6] = test system: MDA-MB-231 breast
[7] = test system: MCF7 breast
[8] = test system: SNB-19 CNS
[9] = test system: NCI-H522 lung
[10] = test system: OVCAR-4 ovarian
[11] = test system: A549 NSCLC
[12] = test system: SN12C renal
[13] = test system: HCC-2998 colon
[14] = test system: A498 renal
[15] = test system: ACHN renal
[16] = test system: 786-0 renal
[17] = test system: BT-549 breast
[18] = test system: HOP-62 NSCLC
[19] = test system: DU-145 prostate
[20] = test system: U251 CNS
[21] = test system: IGROV1 ovarian
[22] = test system: KM12 colon
[23] = test system: HT29 colon
[24] = test system: PC-3 prostate
[25] = test system: TK-10 renal
[26] = test system: CAKI-1 renal
[27] = test system: HCT-15 colon
[28] = test system: UACC-62 melanoma
[29] = test system: T-47D breast
[30] = test system: SK-MEL-2 melanoma
[31] = test system: NCI-H460 lung
[32] = test system: SF-268 CNS
[33] = test system: SK-MEL-5 melanoma
[34] = test system: OVCAR-5 ovarian
[35] = test system: MALME-3M melanoma
[36] = test system: CCRF-CEM leukemia
[37] = test system: MDA-MB-435
[38] = test system: NCI-H23 lung
[39] = test system: SF-539 CNS
[40] = test system: LOX IMVI melanoma
[41] = test system: SK-MEL-28 melanoma
[42] = test system: UACC-257 melanoma
[43] = test system: MOLT-4 leukemia
[44] = test system: NCI/ADR-RES ovarian
[45] = test system: UO-31 renal
[46] = test system: SK-OV-3 ovarian
[47] = test system: HCT-116 colon
[48] = test system: RXF 393 renal
[49] = test system: COLO 205 colon
[50] = test system: HS 578T breast
[51] = test system: RPMI-8226 leukemia
[52] = test system: HL-60(TB) leukemia
[53] = test system: K-562 leukemia
[54] = test system: NCI-H226 lung
[55] = test system: OVCAR-8 ovarian

O=c1c2ccc3cccc4c(=O)c5ccc6cccc1c6c5-c2c34
GI50 [1]: > 50 µM
TGI [1]: > 50 µM
GI50 [2]: > 50 µM
TGI [2]: > 50 µM
GI50 [3]: > 50 µM
TGI [3]: > 50 µM
GI50 [4]: > 50 µM
TGI [4]: > 50 µM
GI50 [5]: > 50 µM
TGI [5]: > 50 µM
GI50 [6]: > 50 µM
TGI [6]: > 50 µM
GI50 [7]: > 50 µM
TGI [7]: > 50 µM
GI50 [8]: > 50 µM
TGI [8]: > 50 µM
GI50 [9]: > 50 µM
TGI [9]: > 50 µM
GI50 [10]: > 50 µM
TGI [10]: > 50 µM
GI50 [11]: > 50 µM
TGI [11]: > 50 µM
GI50 [12]: > 50 µM
TGI [12]: > 50 µM
GI50 [13]: > 50 µM
TGI [13]: > 50 µM
GI50 [14]: > 50 µM
TGI [14]: > 50 µM
GI50 [15]: > 50 µM
TGI [15]: > 50 µM
GI50 [16]: > 50 µM
TGI [16]: > 50 µM
GI50 [17]: > 50 µM
TGI [17]: > 50 µM
GI50 [18]: > 50 µM
TGI [18]: > 50 µM
GI50 [19]: > 50 µM
TGI [19]: > 50 µM
GI50 [20]: > 50 µM
TGI [20]: > 50 µM
GI50 [21]: > 50 µM
TGI [21]: > 50 µM
GI50 [22]: > 50 µM
TGI [22]: > 50 µM
GI50 [23]: > 50 µM
TGI [23]: > 50 µM
GI50 [24]: > 50 µM
TGI [24]: > 50 µM
GI50 [25]: > 50 µM
TGI [25]: > 50 µM
GI50 [26]: > 50 µM
TGI [26]: > 50 µM
GI50 [27]: > 50 µM
TGI [27]: > 50 µM
GI50 [28]: > 50 µM
TGI [28]: > 50 µM
GI50 [29]: > 50 µM
TGI [29]: > 50 µM
GI50 [30]: > 50 µM
TGI [30]: > 50 µM
GI50 [31]: > 50 µM
TGI [31]: > 50 µM
GI50 [32]: > 50 µM
TGI [32]: > 50 µM
GI50 [33]: > 50 µM
TGI [33]: > 50 µM
GI50 [34]: > 50 µM
TGI [34]: > 50 µM
GI50 [35]: > 50 µM
TGI [35]: > 50 µM
GI50 [36]: > 50 µM
TGI [36]: > 50 µM
GI50 [37]: > 50 µM
TGI [37]: > 50 µM
GI50 [38]: > 50 µM
TGI [38]: > 50 µM
GI50 [39]: > 50 µM
TGI [39]: > 50 µM
GI50 [40]: > 50 µM
TGI [40]: > 50 µM
GI50 [41]: > 50 µM
TGI [41]: > 50 µM
GI50 [42]: > 50 µM
TGI [42]: > 50 µM
GI50 [43]: > 50 µM
TGI [43]: > 50 µM
GI50 [44]: > 50 µM
TGI [44]: > 50 µM
GI50 [45]: > 50 µM
TGI [45]: > 50 µM
GI50 [46]: > 50 µM
TGI [46]: > 50 µM
GI50 [47]: > 50 µM
TGI [47]: > 50 µM
GI50 [48]: > 50 µM
TGI [48]: > 50 µM
GI50 [49]: > 50 µM
TGI [49]: > 50 µM
GI50 [50]: > 50 µM
TGI [50]: > 50 µM
GI50 [51]: > 50 µM
TGI [51]: > 50 µM
GI50 [52]: > 50 µM
TGI [52]: > 50 µM
GI50 [53]: > 50 µM
TGI [53]: > 50 µM
GI50 [54]: > 50 µM
TGI [54]: > 50 µM
GI50 [55]: > 50 µM
TGI [55]: > 50 µM
